IC50 and melting point data for 7 compounds are collected here from publication PMC11510561, “Synthesis, Urease Inhibition, Molecular Docking, and Optical Analysis of a Symmetrical Schiff Base and Its Selected Metal Complexes” (Molecules, 2024).

Series [1] deals with T1, urease (Canavalia ensiformis, UniProt P07374). Particulars: cited from earlier work.
Series [2] addresses T1, urease. Briefly: biochemical. The protocol: The indophenol method as outlined by Weatherburn was employed to assess urease activity by measuring the produced ammonia. Briefly, incubation of the reaction mixture was carried out at 37 degrees Celsius for half an hour on the microplate reader with 96-well plates. The operated mixture consisted of 20 microliters of the enzyme (from 5 units per ml of stock solution), 20 µL of the tested compound (5 mg/mL stock solution), and 50 microliters of the buffer solution. Thiourea was employed as a reference inhibitor, and percentage inhibition was calculated by […].

Setting [3] is: ref [36], read-out: IC50 (urease).

Where two headings read alike, the source gives them in different places.

T1 sequence (P07374 whole entry, looked up): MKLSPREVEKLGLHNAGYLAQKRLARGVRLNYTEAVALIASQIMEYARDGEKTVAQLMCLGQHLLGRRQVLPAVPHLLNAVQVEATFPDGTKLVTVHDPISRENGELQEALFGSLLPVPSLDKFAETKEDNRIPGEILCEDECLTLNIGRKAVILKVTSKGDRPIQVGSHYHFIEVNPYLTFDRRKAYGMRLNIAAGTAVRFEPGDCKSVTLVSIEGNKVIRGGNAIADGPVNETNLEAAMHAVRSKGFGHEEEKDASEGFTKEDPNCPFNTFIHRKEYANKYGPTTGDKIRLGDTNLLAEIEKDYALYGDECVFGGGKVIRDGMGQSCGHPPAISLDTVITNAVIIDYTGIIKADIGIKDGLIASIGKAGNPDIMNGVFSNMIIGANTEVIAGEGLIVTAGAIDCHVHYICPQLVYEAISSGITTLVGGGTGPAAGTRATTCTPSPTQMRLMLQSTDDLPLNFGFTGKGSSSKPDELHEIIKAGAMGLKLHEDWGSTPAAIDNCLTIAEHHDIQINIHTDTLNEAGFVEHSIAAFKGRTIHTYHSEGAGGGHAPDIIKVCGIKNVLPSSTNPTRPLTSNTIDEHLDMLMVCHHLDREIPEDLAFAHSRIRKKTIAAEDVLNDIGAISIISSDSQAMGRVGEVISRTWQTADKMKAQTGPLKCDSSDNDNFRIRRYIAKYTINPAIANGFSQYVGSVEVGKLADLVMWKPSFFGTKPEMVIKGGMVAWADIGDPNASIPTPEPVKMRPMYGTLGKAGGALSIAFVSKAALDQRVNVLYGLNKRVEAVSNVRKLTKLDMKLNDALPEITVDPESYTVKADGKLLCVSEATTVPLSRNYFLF

As for `NC(=O)NO` [Hydroxyurea], at urease [1] (setting [3]), the IC50 is 100 µM.

As to `NC(N)=S` [Thiourea], the IC50 is 20.7 µM at urease [2] (indophenol method, 37 degrees Celsius, half an hour, thiourea as reference, read-out: Urease Inhibition IC50); 22 µM at urease [1] (ref [35], read-out: IC50 (urease)); 23 µM at urease [1] (setting [3]).

`Nn1c(SCC(=O)O)nnc1-c1ccncc1` [HL]: the IC50 on urease [1] (read-out: IC50 (urease), ref [37]) is 15.1 ± 2.22 µM.

Compound `COc1ccc(-c2n[nH]c(=O)n2/N=C/c2cccc(/C=N/n3c(-c4ccc(OC)cc4)n[nH]c3=O)n2)cc1` [Compound 6, 4,4′-((1E,1′E)-(Pyridine-2,6-diylbis(methanylylidene))bis(azanylylidene))bis(3-(4-methoxyphenyl)-1H-1,2,4-triazol-5(4H)-one)] returned a melting point of 181 to 183 °C. At urease [2], this compound displayed an IC50 of 21.8 ± 1.88 µM.

For `CC(=O)NO` [Acetohydroxamic acid], the IC50 was 7.9 µM on urease [1] (ref [37], read-out: IC50 (urease)) and 32.1 µM on urease [1] (unit inferred, ref [39], read-out: IC50 (urease), reference drug).

In the case of `Nn1c(SCC(=O)O)nnc1-c1ccccn1` [Compound H2L], at urease [1] (read-out: IC50 (urease), ref [38]), the IC50 was 14.7 ± 1.4 µM.

Take `Nn1c(-c2ccncc2)n[nH]c1=S` [Compound C00005]: the IC50 at urease [1] (read-out: IC50 (urease), ref [39]) is more than 100 µM.
